The text below walks through data of patent US20230233531A1, “USE OF NON-STEROIDAL ANTI-INFLAMMATORY COMPOUNDS FOR TREATMENT OF INFLAMMATION” (University of Houston System, priority 2022, published 2023).

In assay [1] the test system is carrageenan-induced paw inflammation. Nature of the assay: Carrageenan-induced paw inflammation/edema in BABL-c mice. The class given is in vivo. The note with it: for inflammatory edema (paw volume quantitation): 50 mg/kg intramuscular 10 min before carrageenan, vs saline control; for inflammatory edema (paw volume quantitation) / time course of paw volume: 50 mg/kg; for paw thickness: 50 mg/kg intramuscular, vs control group; for time course of paw volume: 0-6 h after carrageenan. On the procedure: (§1) Animals. The adult CD-1 mice (18-20 g) and BABL-c (18-20 g) were purchase from Envigo Plus vendor (USA) and used in this study. The mice were hosted under standard condition (23±2° C.; 12 h/12 h light/dark cycle; 50% humidity). The protocol was approved by Institutional Animal Care and Use Committee (IACUC). And all procedures were conducted according to IACUC. After all the experiments, the animals were euthanized with CO2 under the procedure of IACUC. Injections of compounds. The synthesized compounds to be tested were injected 10 mins before carrageenan injection. All the compounds were freshly prepared. All the compounds were dissolved in PBS and totally dissolved after ultrasonic. The compounds were injected with 26-G sterile needle via intramuscular injection. After immobilizing the mice, the hind limb was immobilized with the little finger and the then, the injection site was disinfected with 70% alcohol, and the needle was inserted into the root of the hindlimb at an angle of 45 degrees. The needle plug was withdrawn to make sure there was no injection into the blood vessel. If there was no blood return, the compounds were injected slowly. The mice were place back to their cages for 10 mins before the next step. Procedures for establishing of paw inflammation. The procedure of establishing inflammation mice model and the procedure of measurement of paw edema were describe as follow: 1% lambda-carrageenan was freshly prepared before injection. Carrageenan powder was first dissolved in cold PBS and vortexed for 5 times. Then the mixture was placed in 50° C. water for 5 mins until all the milky white matrix dissolved completely. […]*3⁄8 (0.45 mm*10 mm) sterile needle was used for injection. Carrageenan was subcutaneous injected slowly into the middle of the mice left hind paw. The time of injection Carrageenan was count as the start time point (0 h) and the paw swelling size was recorded as paw thickness and paw edema volume. Establishing of Carrageenan-induced Inflammatory Paw Edema Mice Model. […] The carrageenan-induced paw edema inflammation is a well-defined model of acute inflammation. It is widely and commonly used for evaluating the effectiveness of inhibitors of prostaglandin synthesis. Carrageenan is a complex of polysaccharides that functions in stimulating the expressions of COX-2 and mPGES-1 to release the proinflammatory mediator, PGE2, and its downstream factors, such as bradykinin, histamine, tachykinins, reactive oxygen, and nitrogen species. In this study, to induce acute inflammation, a single dose of 25 μl of 1% solution of λ-carrageenan was injected subcutaneously into the pad area of the hairless skin on the underside of the left hind paw (FIG. 1A). The injection was performed using a 26-gauge needle targeting the center of the plantar region. The administration of leading compounds and the positive control group, Celebrex, and the negative control saline occurred 10 minutes prior to the λ-carrageenan […] injection. To obtain the anti-inflammatory data, the animal condition was monitored hourly and paw-edema volume and thickness were measured hourly from 0 h to 6 h and again at 24 h, the injection of λ-carrageenan was counted as 0 h (FIG. 1B). After 24 h, local blood was collected from the hind paw of the mice for the next step assay to determine the PGE2 and PGI2 levels. Tissue samples, including the stomach and kidney, were collected after euthanization. The BABL-c mice were arranged into three groups: A. Control (Ctl) group: 50 μl saline; B. 2Me group: 50 mg/kg, 50 ul; C. 3-F group: 50 mg/kg, 50 ul. the CD-1 mice were arranged into 6 groups: A. Control (Ctl) group: saline 50 ul; B. 2-Me group: 50 mg/kg, 50 ul; C. 3-F group: 50 mg/kg, 50 ul; D: 2-Me group: 10 mg/kg, 50 ul; E. 3-F group: 10 mg/kg, 50 ul; F. Celebrex group: 50 mg/kg, 50 ul. Establishing measurements of the carrageenan-induced acute inflammation/edema. […]
For orientation: The carrageenan paw model is a standard test of acute inflammation.

Assay [2] has the same test system. The experiment in a line: Carrageenan-induced paw inflammation/edema in CD-1 mice. It counts as in vivo. The note with it: for dose-dependent anti-inflammatory activity, paw thickness: 10 mg/kg vs 50 mg/kg; for dose-dependent anti-inflammatory activity, paw edema volume: 10 mg/kg vs 50 mg/kg, 2, 4 and 6 h; for paw thickness increase / paw volume increase: 50 mg/kg intramuscular, vs control group; for paw volume increase: 50 mg/kg. As for the experimental part: as §1

The target in the next assay is T1, COX-2-10aa-mPGES-1 (Homo sapiens, UniProt O14684+P35354).
T1 construct: made in house
T1 sequence (P35354+O14684 with tags, fused parts or gaps): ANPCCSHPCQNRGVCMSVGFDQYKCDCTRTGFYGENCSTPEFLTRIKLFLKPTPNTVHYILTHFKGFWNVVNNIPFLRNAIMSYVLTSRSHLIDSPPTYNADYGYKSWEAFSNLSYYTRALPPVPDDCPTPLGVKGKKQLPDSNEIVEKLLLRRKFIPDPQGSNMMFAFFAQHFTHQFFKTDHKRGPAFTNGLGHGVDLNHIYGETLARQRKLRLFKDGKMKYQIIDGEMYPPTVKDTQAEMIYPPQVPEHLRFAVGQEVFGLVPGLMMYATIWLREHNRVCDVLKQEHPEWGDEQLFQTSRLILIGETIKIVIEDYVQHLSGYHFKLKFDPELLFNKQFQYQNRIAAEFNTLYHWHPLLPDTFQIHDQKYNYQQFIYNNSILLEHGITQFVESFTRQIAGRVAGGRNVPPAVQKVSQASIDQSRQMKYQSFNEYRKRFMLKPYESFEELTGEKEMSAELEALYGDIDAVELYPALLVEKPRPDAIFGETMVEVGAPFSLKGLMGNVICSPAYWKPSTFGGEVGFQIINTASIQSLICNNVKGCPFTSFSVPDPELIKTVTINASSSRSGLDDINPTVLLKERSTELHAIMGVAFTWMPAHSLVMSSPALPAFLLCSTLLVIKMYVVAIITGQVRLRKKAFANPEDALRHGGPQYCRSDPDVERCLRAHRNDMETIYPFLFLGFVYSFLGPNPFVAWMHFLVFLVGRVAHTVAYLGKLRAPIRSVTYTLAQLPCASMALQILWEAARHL
Nature of the assay: Enzymelink COX-2-10aa-mPGES-1 high through-put screening. The class given is biochemical. Particulars: cross-filtered between mPGES-1, PGIS and COX-2 with AA as substrate. From the text:
There is an urgent need for new anti-inflammatory drugs with less the adverse effects in clinical practice. Developing drugs which inhibit mPGES-1 without affecting other COX downstream synthases to only decrease PGE2 level at inflammation site is an ideal therapeutic strategy to treat inflammatory diseases. By successfully establishing a system of single-chain Enzymelinks of the upstream COX-2 and the downstream mPGES-1 thread by a 10 amino acid (AA) bio-linker (COX-2-10aa-mPGES-1 [9,11]), one can mimic endogenous inflammatory PGE2 biosynthesis without affecting COX-2 coupling to other enzyme synthases, for example, PGIS. This kind of Enzymelink has a kinetic advantage for converting the initial substrate, AA, to pro-inflammatory PGE2 via a triple catalytic reaction due to the shorter distance between the catalytic domain of the two enzymes within a single polypeptide chain. By this method, it was possible to reduce the interference with the mPGES-1 inhibitor screen, such as the nonspecific inhibition and cross-inhibition of PGIS, by avoiding the use of the unstable intermediate PGH2 as the initial substrate for PGE2 biosynthesis. At the same time, another Enzymelink, COX-2-10aa-PGIS was established in order to verify that the screen compound will not affect PGI2 synthesis. […]

Structures are written as SMILES. “Also recorded” adds a separate entry of the source.

In the case of `CC(C)c1ccc(-c2nc3cc(N)ccc3o2)cc1` [2-Me], in assay [1], the “inflammatory edema (paw volume quantitation)” value was “significantly decreased the inflammatory edema; also recorded: significant effects on reducing the paw edema”; the paw thickness entry is listed as “significant anti-inflammatory potency”; the “time course of paw volume” value is “increased slightly in the first 4 hours and decreases in the following 2 hours”. In assay [2], the “dose-dependent anti-inflammatory activity, paw thickness” value is “improve the anti-inflammatory effects”; the “dose-dependent anti-inflammatory activity, paw edema volume” value is “improved its anti-inflammation activity”; the paw thickness increase result is reported as “significantly decrease”; the paw volume increase result is reported as “significantly decrease; also recorded: significant effects on reducing the paw edema”. The “selectivity for mPGES-1” value at COX-2-10aa-mPGES-1 is “highly selective for mPGES-1”.
Consider `Nc1ccc2oc(-c3ccc(C(F)(F)F)cc3)nc2c1` [3-F], for which, in assay [1], the “inflammatory edema (paw volume quantitation)” value is listed as “significantly decreased the inflammatory edema; also recorded: significant effects on reducing the paw edema”, the paw thickness entry is given as “significant anti-inflammatory potency” and the “time course of paw volume” value was “increased during the first 2 hours but decreased within the next 4 hours”. Moreover, in assay [2], the “dose-dependent anti-inflammatory activity, paw thickness” value was “improve the anti-inflammatory effects”; the “dose-dependent anti-inflammatory activity, paw edema volume” value is “increasing potent anti-inflammatory effect corresponding with the dosage increase”; the paw thickness increase entry is “significantly decrease”; the paw volume increase entry was “significantly decrease; also recorded: significant effects on reducing the paw edema”. For the same molecule, the “selectivity for mPGES-1” value on COX-2-10aa-mPGES-1 is “highly selective for mPGES-1”.
